Experimental data from article PMC9127750, “Structure-based design of CDC42 effector interaction inhibitors for the treatment of cancer” (Cell reports, 2022).
Where “and” joins values, the source holds several entries; their conditions need not be identical. Equal values may be shown once.

Tested on: WM3248 melanoma cells, 486 antibodies
Assay: Reverse phase protein arrays (RPPA)
Format: cell-based, Human
Description: Pellets were snap frozen in liquid nitrogen and shipped to MD Anderson Cancer Center core RPPA facility for RPPA analysis (Table S5). Three biological replicates for each sample were generated.
Nomenclatures on the RPPA heatmaps: name_of_antibody.species_of_antibody.status_of_antibody. V - antibody validated; C - validation of antibody in progress; Q - antibody nonspecific; E – under evaluation; antibodies raised in M - mouse, G - goat, R - rabbit, or T - rat.

`CN(C)c1cccc(Nc2cc(-c3ccccc3)nc(C3CCNCC3)n2)c1` [ARN22089, N1,N1-dimethyl-N3-(6-phenyl-2-(piperidin-4-yl)pyrimidin-4-yl)benzene-1,3-diamine] was tested, and the CD31.M.V normalized signal (Norm_10 Average) was 0.960, the CD38.R.C normalized signal (Norm_10 Average) was 0.936 and the CD45.M.V normalized signal (Norm_10 Average) was 0.964. It also gave a CD68.M.C normalized signal (Norm_10 Average) of 1.001, a CD134.R.V normalized signal (Norm_10 Average) of 0.970 and a CD171.M.V normalized signal (Norm_10 Average) of 0.831. The CDK1_pT14.R.C normalized signal (Norm_10 Average) was 0.888, the CDK9.R.V normalized signal (Norm_10 Average) was 0.988 and the CDKN2A.R.C normalized signal (Norm_10 Average) was 0.963. The CDT1.R.V normalized signal (Norm_10 Average) was 0.925, the CENP.A.R.V normalized signal (Norm_10 Average) was 0.967 and the CHD1L.R.V normalized signal (Norm_10 Average) was 1.025. For the same molecule, the COG3.R.V normalized signal (Norm_10 Average) was 1.013, the CRABP1.R.C normalized signal (Norm_10 Average) was 0.993 and the CRABP2.R.V normalized signal (Norm_10 Average) was 0.915. It also gave a CSK.R.C normalized signal (Norm_10 Average) of 0.971, a Calnexin.R.V normalized signal (Norm_10 Average) of 1.021 and a Caspase.3.cleaved.R.C normalized signal (Norm_10 Average) of 0.926. The Caspase.7.cleaved..R.C normalized signal (Norm_10 Average) was 1.030, the Caspase.8.M.Q normalized signal (Norm_10 Average) was 0.998 and the Caspase.8.cleaved.R.C normalized signal (Norm_10 Average) was 0.924. The Cdc6.R.V normalized signal (Norm_10 Average) was 0.962, the Cdc42.R.C normalized signal (Norm_10 Average) was 0.966 and the Chk1.M.C normalized signal (Norm_10 Average) was 0.942. The Chk1_pS296.R.V normalized signal (Norm_10 Average) was 0.948, the Chk1_pS345.R.C normalized signal (Norm_10 Average) was 1.019 and the Chk2.M.V normalized signal (Norm_10 Average) was 0.971. It also gave a Chk2_pT68.R.C normalized signal (Norm_10 Average) of 0.963, a Claudin.7.R.V normalized signal (Norm_10 Average) of 1.252 and a Collagen.VI.R.V normalized signal (Norm_10 Average) of 1.085. The Complex.II.Subunit.M.V normalized signal (Norm_10 Average) was 1.079, the Connexin.43.R.C normalized signal (Norm_10 Average) was 1.004 and the Cox2.R.C normalized signal (Norm_10 Average) was 1.057. For the same molecule, the Creb.R.C normalized signal (Norm_10 Average) was 0.975, the CtIP.R.V normalized signal (Norm_10 Average) was 0.953 and the Cyclin.B1.R.V normalized signal (Norm_10 Average) was 0.844. The Cyclin.D1.R.C normalized signal (Norm_10 Average) was 1.008, the Cyclin.D3.M.V normalized signal (Norm_10 Average) was 0.934 and the Cyclophilin.F.M.V normalized signal (Norm_10 Average) was 0.980. For the same molecule, the DAPK1_pS308.M.C normalized signal (Norm_10 Average) was 1.809, the DAPK2.R.C normalized signal (Norm_10 Average) was 0.982 and the DDB.1.R.V normalized signal (Norm_10 Average) was 0.823. The DDR1.R.V normalized signal (Norm_10 Average) was 1.020, the DDR1_pY513.R.C normalized signal (Norm_10 Average) was 1.009 and the DJ1.R.V normalized signal (Norm_10 Average) was 0.997. The DM.Histone.H3.R.V normalized signal (Norm_10 Average) was 0.900, the DM.K9.Histone.H3.M.V normalized signal (Norm_10 Average) was 0.982 and the DNA.Ligase.IV.R.C normalized signal (Norm_10 Average) was 0.937. It also gave a DNA_POLG.R.V normalized signal (Norm_10 Average) of 1.080, a c.Jun_pS73.R.V normalized signal (Norm_10 Average) of 0.793 and a c.Kit.R.V normalized signal (Norm_10 Average) of 1.213. The c.Met_pY1234_Y1235.R.V normalized signal (Norm_10 Average) was 0.933, the c.Myc.R.C normalized signal (Norm_10 Average) was 1.350 and the cdc2_pY15.R.C normalized signal (Norm_10 Average) was 0.855. For the same molecule, the cdc25C.R.V normalized signal (Norm_10 Average) was 0.849, the C.Raf.R.C normalized signal (Norm_10 replicates) was 1.081 and 0.699 and 0.805 and the C.Raf_pS338.R.V normalized signal (Norm_10 replicates) was 0.823 and 0.996. The CA9.R.C normalized signal (Norm_10 replicates) was 0.873 and 0.916, the CD2.M.C normalized signal (Norm_10 replicates) was 0.952 and 0.983 and 0.955 and the CD4.R.V normalized signal (Norm_10 replicates) was 0.995 and 0.882 and 0.915. For the same molecule, the CD5.M.C normalized signal (Norm_10 replicates) was 0.953 and 1.022, the CD20.R.C normalized signal (Norm_10 replicates) was 0.859 and 1.349 and 1.680 and the CD26.R.V normalized signal (Norm_10 replicates) was 0.886 and 0.919 and 1.217. For the same molecule, the CD29.M.V normalized signal (Norm_10 replicates) was 0.978 and 0.970, the CD31.M.V normalized signal (Norm_10 replicates) was 0.934 and 1.028 and 0.917 and the CD38.R.C normalized signal (Norm_10 replicates) was 1.013 and 0.750 and 1.046. For the same molecule, the CD44.R.C normalized signal (Norm_10 replicates) was 0.886 and 1.140, the CD45.M.V normalized signal (Norm_10 replicates) was 0.989 and 0.991 and the CD49b.M.V normalized signal (Norm_10 replicates) was 1.113 and 1.053. The CD68.M.C normalized signal (Norm_10 replicates) was 0.973 and 0.957, the CD74.M.V normalized signal (Norm_10 replicates) was 0.883 and 1.031 and 0.993 and the CD134.R.V normalized signal (Norm_10 replicates) was 0.926 and 1.018 and 0.966. For the same molecule, the CD171.M.V normalized signal (Norm_10 replicates) was 0.567 and 1.011 and 0.915, the CDK1_pT14.R.C normalized signal (Norm_10 replicates) was 0.950 and 0.703 and 1.011 and the CDK9.R.V normalized signal (Norm_10 replicates) was 0.925 and 1.065 and 0.973. The CDKN2A.R.C normalized signal (Norm_10 replicates) was 0.890 and 1.007 and 0.992, the CDT1.R.V normalized signal (Norm_10 replicates) was 0.844 and 1.019 and the CENP.A.R.V normalized signal (Norm_10 replicates) was 0.909 and 0.955. The CHD1L.R.V normalized signal (Norm_10 replicates) was 0.986 and 0.996, the CIITA.R.C normalized signal (Norm_10 replicates) was 0.878 and 1.138 and 1.266 and the COG3.R.V normalized signal (Norm_10 replicates) was 1.048 and 1.011 and 0.981.
